Results taken from patent US20230235084A1, “COMPOSITIONS AND METHODS FOR TARGETED PROTEIN STABILIZATION BY REDIRECTING ENDOGENOUS DEUBIQUITINASES” (THE TRUSTEES OF COLUMBIA UNIVERSITY IN THE CITY OF NEW YORK, priority 2020, published 2023).
Blank lines part the entries; values can stand above or below the molecule they belong to.

Tests used:
[1] = tested on: KCNQ1; test: Whole-cell patch clamp of KCNQ1 currents in CHO cells; format: cell-based, human
Protocol: Whole-cell patch clamp electrophysiology was used to determine functionality of enDUB-O1-rescued KCNQ1 channels.
Chinese hamster ovary (CHO) cells were obtained from ATCC and cultured at 37° C. in Kaighn’s Modified Ham’s F-12K (ATCC) supplemented with 8% FBS and 100 mg/mL of penicillin-streptomycin. CHO cells were transiently transfected with desired constructs in 35 mm tissue culture dishes—KCNQ1 (0.5 µg) and nano-P2A-CFP (0.5 µg) or enDUBO1-P2A-CFP (0.5 µg) using X-tremeGENE HP (1:2 DNA/reagent ratio) according to the manufacturers’ instructions (Roche).
For potassium channel measurements, whole-cell membrane currents were recorded at room temperature in CHO cells using an EPC-10 patch-clamp amplifier (HEKA Electronics) controlled by the PatchMaster software (HEKA). A coverslip with adherent CHO cells was placed on the glass bottom of a recording chamber (0.7-1 mL in volume) mounted on the stage of an inverted Nikon Eclipse Ti-U microscope. Micropipettes were fashioned from 1.5 mm thin-walled glass and fire-polished. […] Pipette resistance was typically 1.5 MΩ when filled with internal solution. I-V curves were generated from a family of step depolarizations (-40 to +100 mV in 10 mV steps from a holding potential of -80 mV). Currents were sampled at 20 kHz and filtered at 5 kHz. Traces were acquired at a repetition interval of 10 s.

[2] = tested on: CFTR; test: Whole-cell patch clamp of CFTR currents in HEK293 cells; format: cell-based, human
Source text: A critical next step was to determine whether enDUB-U21-rescued mutant CFTR channels are functional. We focused on N1303K and 4326delTC to represent Class II and Class VI mutations, respectively. HEK293 cells expressing WT CFTR display robust forskolin-activated chloride currents that are blocked by CFTR inhibitor (FIGS. 3C and 3D), and not observed in untransfected cells (FIG. 3E). By contrast, cells expressing either N1303K or 4326delTC alone yielded no forskolin-induced currents (FIGS. 3F and 3G) consistent with their limited surface trafficking and status as disease-causing mutants.
For CFTR channel measurements, whole-cell recordings were carried out in HEK293 and FRT cells at room temperature. Internal solution contained (mM): 113 L-aspartic acid, 113 CsOH, 27 CsCl, 1 NaCl, 1 MgCl2, 1 EGTA, 10 TES, 3 MgATP (pH 7.2). External contained (in mM): 145 NaCl, 4 CsCl, 1 CaCl2, 1 MgCl2, 10 glucose, and 10 TES (pH 7.4). I-V curves were generated from a family of step depolarizations (-80 to +80 mV in 20 mV steps from a holding potential of -40 mV). CFTR currents were activated by perfusion with 10 µM forskolin. In experiments utilizing lumacaftor (3 µM), the drug was added for 24 hrs posttransfection and incubated at 37° C. Ivacaftor was used acutely at 5 µM concentration. Currents were sampled at 20 kHz and filtered at 7 kHz. Traces were acquired at a repetition interval of 10 s.

[3] = tested on: BBS-CFTR-YFP; test: Flow cytometry assay of CFTR surface density in HEK293 cells; format: cell-based, human
Source text: BBS-tagged YFP-CFTR was engineered to enable simultaneous assessment of total channel expression and surface density using flow cytometry, and probed the impact of six distinct mutations previously categorized as Class II (F508del, R560T, N1303K) or Class VI (Q1412X, 4279insA, 4326delTC) mutations, respectively (FIG. 3A). All six mutations markedly impaired channel surface density compared to WT CFTR (FIG. 3B, black bars). […] We utilized a second enDUB (enDUB-U21) that comprises the catalytic component of ubiquitin-specific protease USP21 (FIG. 3A), which removes all ubiquitin linkage types (Faesen et al. 2011).
Cell surface and total ion channel pools were assayed by flow cytometry in live, transfected HEK293 cells as previously described (Kanner et al. 2017; Kanner et al. 2018). Briefly, 48 hrs post-transfection, cells cultured in 12-well plates gently washed with ice cold PBS containing Ca^2+ and Mg^2+ (in mM: 0.9 CaCl2, 0.49 MgCl2, pH 7.4), and then incubated for 30 min in blocking medium (DMEM with 3% BSA) at 4° C. HEK293 cells were then incubated with 1 µM Alexa Fluor 647 conjugated α-bungarotoxin (BTX647; Life Technologies) in DMEM/3% BSA on a rocker at 4° C. for 1 hr, followed by washing three times with PBS (containing Ca^2+ and Mg^2+ ). […]

[4] = target: T1, full-length CFTR (Homo sapiens, UniProt P13569); test: Flow cytometric FRET binding assay in HEK293 cells; conditions: Cerulean-nanobody donor, Venus-CFTR acceptor
T1 construct: expressed in transfected cells; host or cells: HEK293
T1 sequence (P13569 whole entry): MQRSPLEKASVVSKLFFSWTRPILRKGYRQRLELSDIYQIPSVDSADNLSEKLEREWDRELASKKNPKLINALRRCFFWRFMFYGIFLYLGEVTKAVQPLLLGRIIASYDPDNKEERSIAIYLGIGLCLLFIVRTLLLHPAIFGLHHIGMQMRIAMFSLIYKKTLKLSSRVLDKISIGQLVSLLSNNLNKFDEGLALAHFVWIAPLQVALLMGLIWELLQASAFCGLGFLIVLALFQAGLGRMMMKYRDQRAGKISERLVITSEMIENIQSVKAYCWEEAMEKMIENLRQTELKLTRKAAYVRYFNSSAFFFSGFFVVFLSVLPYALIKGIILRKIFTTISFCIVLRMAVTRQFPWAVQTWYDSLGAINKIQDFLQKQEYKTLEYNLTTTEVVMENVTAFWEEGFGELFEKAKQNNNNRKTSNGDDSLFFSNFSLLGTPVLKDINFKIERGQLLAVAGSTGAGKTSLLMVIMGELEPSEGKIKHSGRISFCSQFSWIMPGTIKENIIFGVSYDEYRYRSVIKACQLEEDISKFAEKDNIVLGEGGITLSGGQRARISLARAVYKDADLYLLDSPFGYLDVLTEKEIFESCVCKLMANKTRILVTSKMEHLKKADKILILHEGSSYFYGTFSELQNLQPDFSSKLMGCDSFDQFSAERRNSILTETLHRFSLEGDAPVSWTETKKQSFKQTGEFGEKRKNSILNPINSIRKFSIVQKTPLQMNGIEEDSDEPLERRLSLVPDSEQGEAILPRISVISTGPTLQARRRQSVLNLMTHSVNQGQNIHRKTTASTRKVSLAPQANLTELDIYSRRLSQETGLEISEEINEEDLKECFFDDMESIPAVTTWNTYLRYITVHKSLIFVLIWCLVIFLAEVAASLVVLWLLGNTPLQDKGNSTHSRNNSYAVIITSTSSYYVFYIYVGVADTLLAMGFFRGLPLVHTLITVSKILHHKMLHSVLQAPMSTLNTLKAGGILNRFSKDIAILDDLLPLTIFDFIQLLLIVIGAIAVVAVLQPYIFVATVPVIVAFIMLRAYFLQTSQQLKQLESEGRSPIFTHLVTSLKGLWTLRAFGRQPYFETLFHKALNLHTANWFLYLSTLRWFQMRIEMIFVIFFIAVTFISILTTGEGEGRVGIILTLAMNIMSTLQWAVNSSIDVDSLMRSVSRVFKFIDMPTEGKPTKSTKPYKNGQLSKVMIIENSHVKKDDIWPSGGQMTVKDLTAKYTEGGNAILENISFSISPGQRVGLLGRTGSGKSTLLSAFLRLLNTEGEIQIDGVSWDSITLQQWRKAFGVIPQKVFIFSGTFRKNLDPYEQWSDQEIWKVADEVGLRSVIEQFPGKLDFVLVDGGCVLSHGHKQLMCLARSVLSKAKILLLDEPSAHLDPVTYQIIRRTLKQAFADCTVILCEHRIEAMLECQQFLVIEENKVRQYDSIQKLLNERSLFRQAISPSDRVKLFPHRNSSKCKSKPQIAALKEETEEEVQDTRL
Source text: (§1) While GFP-targeted enDUBs provided critical proof-of-concept efficacy for the targeted deubiquitination approach in rescuing different trafficking-deficient recombinant mutant channels, a key next step was to develop nanobodies towards CFTR itself to enable targeting of endogenous channels. Accordingly, we used purified CFTR NBD1 domain (FIG. 4A) as bait to identify binders using a yeast nanobody library surface display approach (McMahon et al. 2018) (FIG. 4B). After several rounds of magnetic-activated cell sorting (MACS) and fluorescence-activated cell sorting (FACS) selection we isolated 14 unique nanobody binders with a range of affinities for NBD1 as reported by an on-yeast binding assay (FIG. 12A; Table 1). […] Binding of nb.E3h to full-length CFTR in cells was confirmed by a flow cytometric fluorescence resonance energy transfer (flow-FRET) assay (FIG. 4C).
FRET binding assays were performed via flow cytometry in live, transfected HEK293 cells as previously described (Lee et al. 2016). […] Cerulean (Cer), Venus (Ven), and FRET signals were analyzed using the following laser / filter set configurations: BV421 (Ex: 405 nm, Em: 450/50), FITC (Ex: 488 nm, Em: 525/50), and BV520 (Ex: 405 nm, Em: 525/50), respectively. […]

[5] = tested on: CFTR; test: YFP halide quenching assay in HEK293 cells; format: cell-based, human; conditions: HEK293, pilot screen of nanobodies
Source text: as §1
Target sequence in this assay (P13569 387-646 limits assumed): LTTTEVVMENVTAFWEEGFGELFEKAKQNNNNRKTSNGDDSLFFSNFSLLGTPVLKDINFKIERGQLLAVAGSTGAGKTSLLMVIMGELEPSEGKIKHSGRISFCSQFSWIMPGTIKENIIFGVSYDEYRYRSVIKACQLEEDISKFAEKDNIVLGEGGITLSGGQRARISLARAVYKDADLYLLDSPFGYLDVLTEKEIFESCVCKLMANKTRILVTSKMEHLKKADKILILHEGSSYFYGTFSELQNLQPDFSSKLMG
A YFP halide quenching plate-reader assay was adapted from previous work (Galietta et al. 2001). […] Baseline YFP readings (Ex: 510 nm, Em: 538 nm) were taken using a SpectraMax M5 plate-reader (Molecular Devices). An equal amount of 2× activation solution, containing iodide, was added to obtain a final concentration (70 mM Nal, 10 µM forskolin, 5 µM VX770), and a time series recording YFP fluorescence was taken every 2 s. […]

Molecule: COc1ccc(-c2csc(NC(=O)[C@H]3CCCCN3S(=O)(=O)c3ccc(C)cc3)n2)cc1 [ML277, (R)-N-(4-(4-methoxyphenyl)thiazol-2-yl)-1-tosylpiperidine-2-carboxamide]
enDUB-O1-rescued R591H current amplitude ([1]; R591H + enDUB-O1, ML277 1 µM): markedly increased enDUB-O1-rescued R591H current amplitude to beyond WT KCNQ1 levels | R591H KCNQ1 currents ([1]; R591H + nano, 1 µM): modestly increased R591H currents

Molecule: CC(C)(C)c1cc(C(C)(C)C)c(NC(=O)c2c[nH]c3ccccc3c2=O)cc1O [ivacaftor]
Forskolin-stimulated 4326delTC or N1303K currents after ivacaftor ([2]; enDUB-U21 co-expression + lumacaftor, ivacaftor 5 µM): further enhanced | Forskolin-induced 4326delTC and N1303K currents after ivacaftor ([2]; nano-expressing HEK293 cells, lumacaftor pre-incubation, ivacaftor 5 µM): further elevated

Molecule: Cc1ccc(NC(=O)C2(c3ccc4c(c3)OC(F)(F)O4)CC2)nc1-c1cccc(C(=O)O)c1 [lumacaftor]
F508del and R560T CFTR surface expression ([3]; lumacaftor 24 hrs pre-incubation or enDUB co-expression): did not increase F508del and R560T surface expression | Surface trafficking of the other four CFTR mutations (N1303K, Q1412X, 4279insA, 4326delTC) ([3]; lumacaftor 24 hrs pre-incubation or enDUB co-expression (enDUB compared to lumacaftor)): improved trafficking of the remaining 4 mutations | Forskolin-induced 4326delTC and N1303K currents ([2]; nano-expressing HEK293 cells, lumacaftor pre-incubation): relatively small

Binding to full-length CFTR in cells (flow-FRET) [4]: confirmed
B1: nb.E3h: CFTR (NBD1) target nanobody clone, SEQ ID No: 25 (protein)
VHH: QVQLQESGGGLVQAGGSLRLSCAASGTISGSGSMGWYRQAPGKEREFVAAINVGSNTYYADSVKGRFTISRDNAKNTVYLQMNSLKPEDTAVYYCAVRFGYYYRHTYWGQGTQVTVSS
modifications: nanobody
Performance in patch clamp assay when converted to an enDUB ([2]; HEK293): superior performance | Performance in halide sensor assay when converted to an enDUB [5]: superior performance
